Calls of active or inactive are those of the source. The calls are words filed in the database; no cut-off is given here.
Legend:
Assay type in all cases: cell-based
[1] = biological target: Voltage-dependent T-type calcium channel subunit alpha-1H (Homo sapiens) (UniProt O95180); test: Inhibition of alpha-1H T-type calcium channel Cav3.2 expressed in Xenopus unfertilized oocytes at 100 uM by two-electrode voltage clamp method; conditions: Oocyte
[2] = biological target: T1, Voltage-dependent T-type calcium channel subunit alpha-1G (Homo sapiens, UniProt O43497); test: Inhibition of alpha-1G T-type calcium channel expressed in HEK293 cells at 10 uM by electrophysiological method
[3] = biological target: T1, Voltage-dependent T-type calcium channel subunit alpha-1G; test: Inhibition of alpha-1G T-type calcium channel expressed in HEK293 cells by electrophysiological method
[4] = Inhibition of alpha-1B N-type calcium channel expressed in HEK293 cells by electrophysiological method

T1 sequence (O43497 whole entry): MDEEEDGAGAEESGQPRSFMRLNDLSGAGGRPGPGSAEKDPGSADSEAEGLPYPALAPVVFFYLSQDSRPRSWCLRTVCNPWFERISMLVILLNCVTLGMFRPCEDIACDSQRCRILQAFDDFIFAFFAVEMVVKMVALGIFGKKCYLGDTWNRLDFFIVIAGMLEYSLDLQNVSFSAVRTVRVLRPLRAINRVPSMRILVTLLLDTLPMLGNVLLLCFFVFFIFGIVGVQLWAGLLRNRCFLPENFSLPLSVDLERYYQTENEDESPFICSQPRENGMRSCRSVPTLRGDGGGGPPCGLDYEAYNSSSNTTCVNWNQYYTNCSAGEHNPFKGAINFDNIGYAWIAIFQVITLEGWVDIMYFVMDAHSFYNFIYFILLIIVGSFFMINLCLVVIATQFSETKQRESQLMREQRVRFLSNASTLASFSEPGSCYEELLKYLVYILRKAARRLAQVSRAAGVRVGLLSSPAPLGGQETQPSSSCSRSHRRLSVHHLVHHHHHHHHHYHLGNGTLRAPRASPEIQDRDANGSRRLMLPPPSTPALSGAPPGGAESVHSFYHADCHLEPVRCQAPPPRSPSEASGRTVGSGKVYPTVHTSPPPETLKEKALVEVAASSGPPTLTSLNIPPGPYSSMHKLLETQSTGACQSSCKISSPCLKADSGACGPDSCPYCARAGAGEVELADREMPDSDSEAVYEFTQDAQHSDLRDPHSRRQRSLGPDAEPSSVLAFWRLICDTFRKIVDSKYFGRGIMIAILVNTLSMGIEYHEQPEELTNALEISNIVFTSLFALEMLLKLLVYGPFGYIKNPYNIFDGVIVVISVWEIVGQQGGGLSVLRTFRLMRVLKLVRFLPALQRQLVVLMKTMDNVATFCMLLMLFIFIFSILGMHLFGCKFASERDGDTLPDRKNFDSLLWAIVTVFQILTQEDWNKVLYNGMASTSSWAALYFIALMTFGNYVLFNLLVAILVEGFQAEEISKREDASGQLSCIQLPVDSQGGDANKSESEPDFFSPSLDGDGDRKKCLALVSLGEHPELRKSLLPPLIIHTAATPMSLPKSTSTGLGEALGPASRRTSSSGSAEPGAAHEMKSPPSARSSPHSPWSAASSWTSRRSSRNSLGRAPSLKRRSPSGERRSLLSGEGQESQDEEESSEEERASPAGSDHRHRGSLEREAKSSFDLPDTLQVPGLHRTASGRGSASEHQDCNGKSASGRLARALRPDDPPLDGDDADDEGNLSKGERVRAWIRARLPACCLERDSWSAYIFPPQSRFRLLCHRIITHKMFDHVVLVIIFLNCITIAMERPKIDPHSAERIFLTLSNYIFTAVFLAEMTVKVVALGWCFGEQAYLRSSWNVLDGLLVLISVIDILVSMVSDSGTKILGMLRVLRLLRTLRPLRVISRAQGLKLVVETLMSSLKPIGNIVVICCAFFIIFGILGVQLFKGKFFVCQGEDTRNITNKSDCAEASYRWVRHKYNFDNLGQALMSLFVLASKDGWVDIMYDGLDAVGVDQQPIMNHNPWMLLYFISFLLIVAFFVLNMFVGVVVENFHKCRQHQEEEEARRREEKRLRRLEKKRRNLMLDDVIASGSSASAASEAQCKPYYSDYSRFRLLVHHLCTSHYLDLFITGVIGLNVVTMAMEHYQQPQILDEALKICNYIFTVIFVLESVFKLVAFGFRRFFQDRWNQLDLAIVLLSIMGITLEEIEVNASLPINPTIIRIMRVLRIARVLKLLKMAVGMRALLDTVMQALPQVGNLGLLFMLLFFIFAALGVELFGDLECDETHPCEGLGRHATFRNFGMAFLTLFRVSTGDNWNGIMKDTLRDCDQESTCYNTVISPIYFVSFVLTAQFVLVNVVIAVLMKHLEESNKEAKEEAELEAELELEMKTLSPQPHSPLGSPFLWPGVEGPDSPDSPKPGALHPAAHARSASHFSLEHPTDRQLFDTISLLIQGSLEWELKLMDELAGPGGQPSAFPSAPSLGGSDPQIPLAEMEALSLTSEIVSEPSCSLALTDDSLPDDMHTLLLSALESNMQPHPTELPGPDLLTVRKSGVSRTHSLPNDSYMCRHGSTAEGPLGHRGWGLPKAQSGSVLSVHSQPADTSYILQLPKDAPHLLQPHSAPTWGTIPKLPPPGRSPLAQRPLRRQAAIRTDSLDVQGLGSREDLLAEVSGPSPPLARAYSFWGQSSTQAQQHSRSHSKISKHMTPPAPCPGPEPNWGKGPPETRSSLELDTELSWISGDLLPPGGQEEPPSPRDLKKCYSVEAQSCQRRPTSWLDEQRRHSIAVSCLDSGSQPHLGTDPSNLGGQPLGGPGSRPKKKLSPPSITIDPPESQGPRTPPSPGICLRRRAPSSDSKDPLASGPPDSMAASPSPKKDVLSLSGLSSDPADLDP
Chain of Voltage-dependent T-type calcium channel subunit alpha-1H (Homo sapiens) (O95180 whole entry): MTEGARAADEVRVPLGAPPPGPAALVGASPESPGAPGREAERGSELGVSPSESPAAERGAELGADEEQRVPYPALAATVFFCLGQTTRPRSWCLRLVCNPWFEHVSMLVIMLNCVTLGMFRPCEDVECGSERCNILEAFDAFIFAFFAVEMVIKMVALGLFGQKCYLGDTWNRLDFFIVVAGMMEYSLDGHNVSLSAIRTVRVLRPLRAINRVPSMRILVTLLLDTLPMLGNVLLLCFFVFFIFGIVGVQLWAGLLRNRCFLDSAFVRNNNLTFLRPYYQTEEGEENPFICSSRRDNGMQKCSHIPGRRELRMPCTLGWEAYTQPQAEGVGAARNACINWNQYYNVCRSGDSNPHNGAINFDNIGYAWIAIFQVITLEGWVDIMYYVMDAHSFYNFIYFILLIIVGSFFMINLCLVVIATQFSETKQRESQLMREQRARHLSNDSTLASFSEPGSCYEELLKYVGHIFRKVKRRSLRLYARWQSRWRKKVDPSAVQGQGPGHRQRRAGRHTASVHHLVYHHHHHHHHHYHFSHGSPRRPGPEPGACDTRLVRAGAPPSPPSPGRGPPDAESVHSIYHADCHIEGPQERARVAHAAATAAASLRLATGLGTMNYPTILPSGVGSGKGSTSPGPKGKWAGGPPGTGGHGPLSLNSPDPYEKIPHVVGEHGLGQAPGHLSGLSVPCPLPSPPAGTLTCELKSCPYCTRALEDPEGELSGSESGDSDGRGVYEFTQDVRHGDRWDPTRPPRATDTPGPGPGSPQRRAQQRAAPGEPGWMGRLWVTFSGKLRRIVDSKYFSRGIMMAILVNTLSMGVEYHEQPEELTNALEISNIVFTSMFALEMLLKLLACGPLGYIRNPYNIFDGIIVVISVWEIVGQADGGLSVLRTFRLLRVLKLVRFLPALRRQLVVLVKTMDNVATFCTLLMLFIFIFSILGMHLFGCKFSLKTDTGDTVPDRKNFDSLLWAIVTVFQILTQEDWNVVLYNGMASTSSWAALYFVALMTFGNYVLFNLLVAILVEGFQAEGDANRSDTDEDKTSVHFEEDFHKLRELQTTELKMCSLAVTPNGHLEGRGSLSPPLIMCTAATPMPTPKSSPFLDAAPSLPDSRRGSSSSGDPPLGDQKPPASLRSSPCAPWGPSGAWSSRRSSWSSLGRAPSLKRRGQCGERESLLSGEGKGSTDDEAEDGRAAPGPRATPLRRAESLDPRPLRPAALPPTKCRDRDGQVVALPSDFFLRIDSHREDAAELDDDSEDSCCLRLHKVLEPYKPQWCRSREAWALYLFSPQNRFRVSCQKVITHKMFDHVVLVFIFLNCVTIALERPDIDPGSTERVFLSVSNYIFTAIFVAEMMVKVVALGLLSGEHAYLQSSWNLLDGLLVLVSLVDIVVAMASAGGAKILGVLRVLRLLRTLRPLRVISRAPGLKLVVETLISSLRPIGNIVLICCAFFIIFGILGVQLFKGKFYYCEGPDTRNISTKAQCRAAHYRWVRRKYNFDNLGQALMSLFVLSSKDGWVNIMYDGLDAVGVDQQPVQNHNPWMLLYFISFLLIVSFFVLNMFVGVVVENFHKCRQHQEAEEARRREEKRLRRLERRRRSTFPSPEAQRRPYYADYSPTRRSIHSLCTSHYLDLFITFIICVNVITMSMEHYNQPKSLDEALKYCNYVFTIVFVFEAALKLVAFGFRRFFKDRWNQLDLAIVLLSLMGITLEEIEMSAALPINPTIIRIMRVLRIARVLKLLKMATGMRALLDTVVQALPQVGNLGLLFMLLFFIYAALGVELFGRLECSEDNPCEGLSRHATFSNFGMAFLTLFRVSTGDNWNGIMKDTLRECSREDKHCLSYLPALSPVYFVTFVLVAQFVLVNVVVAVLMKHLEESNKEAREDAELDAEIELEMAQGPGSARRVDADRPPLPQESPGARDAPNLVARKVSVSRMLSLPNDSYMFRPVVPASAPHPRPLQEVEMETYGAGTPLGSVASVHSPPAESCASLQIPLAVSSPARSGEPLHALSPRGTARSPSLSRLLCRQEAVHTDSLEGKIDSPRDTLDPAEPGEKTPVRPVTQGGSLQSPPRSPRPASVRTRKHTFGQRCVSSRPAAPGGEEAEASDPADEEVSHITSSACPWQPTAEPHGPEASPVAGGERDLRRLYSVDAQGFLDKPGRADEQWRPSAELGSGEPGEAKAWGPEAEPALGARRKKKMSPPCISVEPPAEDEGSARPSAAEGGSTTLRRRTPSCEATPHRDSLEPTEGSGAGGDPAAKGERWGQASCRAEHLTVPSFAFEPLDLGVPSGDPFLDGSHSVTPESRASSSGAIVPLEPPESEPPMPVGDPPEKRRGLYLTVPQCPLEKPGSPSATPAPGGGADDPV

| SMILES | inhibition [1] | other results |
| --- | --- | --- |
| CC1CCN(CCCNC(=O)c2ccc(Cn3c(=S)[nH]c4ccc(Br)cc4c3=O)cc2)CC1 | 62.6% | – |
| CCOC(=O)c1cc2c(c(CSc3nc4ccccc4c(=O)n3CCCN3CCCCC3)c1)OCOC2 | 35.3% | – |
| O=S(=O)(c1ccccc1)N(CC(O)CN(Cc1ccccc1)Cc1ccccc1)c1ccccc1 (stereo not given) | 15.2% | – |
| O=C(NCCCN1CCOCC1)c1ccc2c(=O)n(-c3cccc(C(F)(F)F)c3)c(=S)[nH]c2c1 | 15.9% | – |
| CCN(CC)CCNC(=O)c1ccc(CNc2nc(=S)[nH]c3ccccc23)cc1 | 9.54% | – |
| O=C(CCC(=O)Nc1nc(-c2cc3cc(Cl)ccc3oc2=O)cs1)NCCCN1CCCC1 | 43.9% | – |
| CCN(CC)CCNC(=O)C1c2ccccc2C(=O)N(Cc2ccc(F)cc2)C1c1ccc(OC)cc1 (stereo not given) | 52.2% | – |
| CCN(CC)CCNC(=O)c1cn(-c2ccc(Cl)cc2)c(=O)c2ccccc12 | 13% | – |
| CCN1CCN(CCCNC(=O)c2ccc3c(=O)n(Cc4ccc(Cl)cc4)c(=S)[nH]c3c2)CC1 | – | inhibition [2]: 78.9%; IC50 [3]: 2530 nM; IC50 [4]: 7100 nM |
| COc1cccc(NC2=C3C(=O)c4ccccc4C4ON=C(C(N5CCN(Cc6cc(Cl)ccc6OC)CC5)=C2)C34)c1 (stereo not given) | 16.1% | – |
| CCC1CCCCN1CCCNC(=O)c1ccc2c(=O)n(Cc3ccc(Cl)cc3)c(=S)[nH]c2c1 (stereo not given) | 98.3% | inhibition [2]: 88.3%; IC50 [4]: 2100 nM |
| CC1CC(C)CN(CCCNc2ccc(C(=O)Nc3ccc(C(F)(F)F)cc3)cc2[N+](=O)[O-])C1 (stereo not given) | 56% | – |
| O=S(=O)(c1cccc2nonc12)N1CCN(C(c2ccccc2)c2ccccc2)CC1 | 15.2% | – |
| O=C(NCCCn1ccnc1)c1ccc2c(=O)n(-c3ccccc3)c(=S)[nH]c2c1 | 2.47% | – |
| O=[N+]([O-])c1ccccc1S(=O)(=O)N1CCN(Cc2ccccc2Cl)CC1 | 7.57% | – |
| FC(F)(F)c1cccc(N2CCN(CCNCc3cc(-c4ccccc4C(F)(F)F)no3)CC2)c1 | – | IC50 [3]: 1020 nM |
| O=C(NCCCN1CCN(c2ccccc2F)CC1)c1ccc(CNc2nc(=S)[nH]c3ccccc23)cc1 | inactive | – |
| CN(CCCNC(=O)c1ccc2c(=O)n(Cc3ccc(Cl)cc3)c(=S)[nH]c2c1)Cc1ccccc1 | – | inhibition [2]: 37.5%; IC50 [3]: 4690 nM |
| CCOC(=O)c1c(NC(=O)c2ccc(S(=O)(=O)N(C)c3ccccc3)cc2)sc2c1CCN(CC)C2 | 22% | – |
| COc1ccccc1-c1cc(CNCCN2CCN(c3ccc(C)cc3C)CC2)on1 | – | IC50 [3]: 2020 nM |
| O=C(NCCCN1CCCCC1)c1ccc2c(=O)n(Cc3ccc(Cl)cc3)c(=S)[nH]c2c1 | 72.9% | inhibition [2]: 34.3%; IC50 [3]: 2080 nM; IC50 [4]: 8100 nM |

| SMILES | inhibition [1] | other results |
| --- | --- | --- |
| O=C1CC(N2CCN(C(c3ccccc3)c3ccccc3)CC2)C(=O)N1c1ccc(Cl)c(C(F)(F)F)c1 (stereo not given) | 41.8% | – |
| O=C(CN1CCN(C(c2ccccc2)c2ccccc2)CC1)NCc1ccc2c(c1)OCO2 | 12.5% | – |
| Cc1cccc(N2CCN(CC(=O)Nc3ccc(Cl)cc3C(=O)c3ccccc3Br)CC2C)c1 (stereo not given) | 9.23% | – |
| COC(=O)c1ccc2c(=O)n(Cc3ccc(C(=O)N4CCC(N5CCCCC5)CC4)cc3)c(=S)[nH]c2c1 | 10.3% | – |
| Cc1ccc(N2CCN(CCNCc3cc(-c4ccccc4C(F)(F)F)no3)CC2)c(C)c1 | – | IC50 [3]: 1530 nM |
| COC(=O)c1ccc(S(=O)(=O)N2CCN(C(c3ccccc3)c3ccccc3)CC2)n1C | – | Activity [1]: inactive |
| CC1CCN(CCNC(=O)c2ccc(-n3c(=S)[nH]c4ccccc4c3=O)cc2)CC1 | – | Activity [1]: inactive |
| O=C(CN1CCN(C2c3ccccc3-c3ccccc32)CC1)Nc1cc(C(F)(F)F)ccc1Cl | – | Activity [1]: inactive |
| O=C(NC1CCN(Cc2ccccc2)CC1)c1ccc2c(=O)n(Cc3ccc(Cl)cc3)c(=S)[nH]c2c1 | – | Activity [1]: inactive |
| Cc1ccc(CSc2nc3cc(C(=O)NCCCN4CCOCC4)ccc3c(=O)n2-c2ccc(F)cc2)cc1 | – | Activity [1]: inactive |
| CN(C)CCNC(=O)c1ccc2c(=O)n(Cc3ccc(Cl)cc3)c(=S)[nH]c2c1 | – | inhibition [2]: 43.5%; IC50 [3]: 53500 nM |
| Cc1ccc(C(=O)Oc2ccc(NC3=NS(=O)(=O)c4ccccc43)cc2CN2CCCCC2)cc1 | 13.5% | – |
| O=C(CSC1CN(C(c2ccccc2)c2ccccc2)C1)NNC(=O)c1ccc(Cl)cc1 | 28.3% | – |
| O=C1c2ccccc2C(=O)N1CC#CCN1CCN(C(c2ccccc2)c2ccccc2)CC1 | – | Activity [1]: inactive |
| CN1CCN(C(=O)c2ccc3c(=O)n(Cc4ccc(Cl)cc4)c(=S)[nH]c3c2)CC1 | – | inhibition [2]: 51.4%; IC50 [3]: 11400 nM |
| CCN(CC)CCOC(=O)c1ccc(NC(=O)c2cc3ccccc3o2)cc1 | 34.4% | – |
| CCN(CC)CCNC(=O)c1ccc(NC(=O)c2cn(CC)c3nc(C)ccc3c2=O)cc1 | 41.9% | – |
| CN(CCCNC(=O)c1ccc(-n2c(=S)[nH]c3ccc(Br)cc3c2=O)cc1)Cc1ccccc1 | 25.7% | – |
| CCN1CCN(c2cc(C)c3cc(NC(=O)/C=C/c4cccc(Cl)c4)ccc3n2)CC1 | – | Activity [1]: inactive |
| COc1ccccc1-c1cc(CNCCN2CCN(c3cccc(C(F)(F)F)c3)CC2)on1 | – | IC50 [3]: 2040 nM |
| O=C(CN(c1cccc([N+](=O)[O-])c1)S(=O)(=O)c1ccccc1)N1CCN(Cc2ccccc2)CC1 | 42.5% | – |

| SMILES | inhibition [1] | other results |
| --- | --- | --- |
| O=C1CC(N2CCN(C(c3ccc(F)cc3)c3ccc(F)cc3)CC2)C(=O)N1c1ccc(Br)cc1 (stereo not given) | 37.1% | – |
| CCN1C(N2CCCCC2)=Nc2ccccc2C1CC(=O)NCc1ccc(NS(=O)(=O)c2ccc(C)cc2)cc1 (stereo not given) | – | IC50 [3]: 960 nM |
| CCCCN(C)CCNC(=O)c1ccc2c(=O)n(Cc3ccc(Cl)cc3)c(=S)[nH]c2c1 | – | inhibition [2]: 34.3%; IC50 [3]: 11400 nM |
| O=C(NCCCN1CCCCCC1)c1ccc2c(=O)n(Cc3ccc(Cl)cc3)c(=S)[nH]c2c1 | – | inhibition [2]: 85.4%; IC50 [3]: 1410 nM; IC50 [4]: 5800 nM |
| OC(CN1CCN(C(c2ccccc2)c2ccccc2)CC1)Oc1cccc(C(F)(F)F)c1 (stereo not given) | 58.3% | – |
| Cc1ccc(N(CC(O)CN(Cc2ccccc2)Cc2ccccc2)S(=O)(=O)c2ccccc2[N+](=O)[O-])cc1 (stereo not given) | 34.7% | – |
| CCOC(=O)c1c(C)n(Cc2ccccc2)c2ccc(OCC(O)CN3CCN(Cc4ccccc4)CC3)cc12 (stereo not given) | 8.83% | – |
| O=C(NCCCN1CCCC1)c1ccc2c(=O)n(Cc3ccc(Cl)cc3)c(=S)[nH]c2c1 | 84.1% | inhibition [2]: 85.4%; IC50 [3]: 1160 nM; IC50 [4]: 17200 nM |
| O=C(NCCCN1CCOCC1)c1ccc2c(=O)n(Cc3ccccc3)c(=S)[nH]c2c1 | 15.9% | – |
| O=C1CC(N2CCN(C(c3ccccc3)c3ccc(Cl)cc3)CC2)C(=O)N1c1cccc(Cl)c1 (stereo not given) | 16.6% | – |
| FC(F)(F)c1cccc(N2CCN(Cn3nc(-c4ccccc4)n(-c4ccccc4)c3=S)CC2)c1 | 11.4% | – |
| O=C1CC(N2CCN(C(c3ccc(F)cc3)c3ccc(F)cc3)CC2)C(=O)N1c1ccc(Cl)cc1 (stereo not given) | 51.8% | – |
| O=C(CCN1C(=O)c2ccccc2C1=O)N1CCN(Cc2ccc(Cl)cc2Cl)CC1 | 12% | – |
| CN(c1ccc(Br)cc1)S(=O)(=O)c1ccc2[nH]cc(C(=O)N3CCN(Cc4ccccc4)CC3)c(=O)c2c1 | 86.5% | – |
| O=C(O)c1ccc2c(=O)n(Cc3ccc(CNCCCN4CCN(c5cccc(Cl)c5)CC4)cc3)c(=S)[nH]c2c1 | 11.4% | – |
| O=C(NCCCn1ccnc1)c1ccc2c(=O)n(-c3ccc(F)c(Cl)c3)c(=S)[nH]c2c1 | – | Activity [1]: inactive |
| O=C1c2ccccc2C(=O)N1CCCN1CCN(Cc2c(F)cccc2Cl)CC1 | 8.1% | – |
| O=C(CCN1C(=O)c2ccccc2C1=O)N1CCN(C(c2ccccc2)c2ccccc2)CC1 | 43.3% | – |
| CC1CCN(CCCNC(=O)c2ccc3c(=O)n(Cc4ccc(Cl)cc4)c(=S)[nH]c3c2)CC1 | – | inhibition [2]: 89.2%; IC50 [3]: 1100 nM; IC50 [4]: 6400 nM |
| CCN(CC)CCOC(=O)c1ccc(N/C=C2/C(=O)NC(=O)N(CCc3ccccc3)C2=O)cc1 | – | Activity [1]: inactive |
